Measured values published in publication PMC8580050, “Improvement of the antimicrobial potency, pharmacokinetic and pharmacodynamic properties of albicidin by incorporation of nitrogen atoms” (Chemical Science, 2021).
Values after ≈ are worked out from the molar mass of the structure shown.

What was measured:
[1] = Cell proliferation assay (HepG2 cells); settings: human
Procedure: (§1) Cell proliferation assay (HepG2 cells)
(§2) The assay was performed by the company Eurofins (Taiwan). Cytotoxicity was representatively
(§3) according to a protocol by Ansar et al.27 This is in line with previously published cytotoxicity data on
(§4) GI = growth inhibition; TGI = total growth inhibition; LC = lethal concentration

HepG2 cells = assay: in vitro; settings: human
Procedure: as §1, §2, §3, §4

[2] = system: S. aureus (ciprofloxacin susceptible clinical isolate); assay: MIC, extended panel; type: cell-based; settings: Staphylococcus aureus
Procedure: (§5) 1.1.1 In vitro experiments
(§6) Determination of Minimal inhibitory concentrations (MIC)
(§7) Approved Standard M07-A9.1
(§8) CFU mL-1. […] Albicidin and […]
(§9) and serially diluted in DMSO (100%). […]
(§10) in 0.1 N HCL, respectively.
(§11) One row of each well plate served as a […]
(§12) sterility control (only MHB II-media). […]
(§13) adding 5 µL DMSO to several wells. […]
(§14) for growth inhibition by naked eye.
(§15) Microorganisms and Cell Cultures (DSMZ): […]
(§16) Dr. Werner (Robert-Koch-Institut, Wernigerode, Germany): […]
(§17) for the following 11 pathogenic isolates: […]

[3] = system: K. pneumoniae (ciprofloxacin susceptible clinical isolate); assay: MIC, extended panel; type: cell-based, Klebsiella pneumoniae; settings: Klebsiella pneumoniae
Procedure: as §5, §6, §7, §8, §9, §10, §11, §12, §13, §14, §15, §16

B. subtilis DSM 10 = assay: MIC determination (broth microdilution); type: cell-based; settings: Bacillus subtilis, DSM10
Procedure: as §5, §6, §7, §8, §9, §10, §11, §12, §13, §14, §15

E. coli BW25113 = assay: MIC determination (broth microdilution); type: cell-based; settings: Escherichia coli
Procedure: as §5, §6, §7, §8, §9, §10, §11, §12, §13, §14, §15

E. coli DNA gyrase = target: T1, E. coli DNA gyrase (Escherichia coli, UniProt P0AES4+P0AES6); assay: E. coli gyrase supercoiling inhibition assay; type: biochemical; parameters: key: ↑: for stronger inhibition; ≈: for equal inhibition; ↓: for diminished inhibition compared to albicidin 1; settings: constant concentration of 45 nM, compared to albicidin 1
T1 construct: purchased inspiralis Limited, Norwich, UK
Procedure: Escherichia coli Gyrase Supercoiling Inhibition Assay
loaded on an agarose gel.
2-15. […] Addition of DNA
All derivatives were tested at a concentration of […]

[4] = system: K. pneumoniae (ciprofloxacin resistant clinical isolate); assay: microbe, parasite or virus in culture; type: cell-based; settings: Klebsiella pneumoniae
Procedure: as §5, §6, §7, §8, §9, §10, §11, §12, §13, §14, §15, §16

[5] = system: Salmonella Kentucky (ciprofloxacin resistant clinical isolate); assay: microbe, parasite or virus in culture; type: cell-based; settings: Salmonella enterica
Procedure: as §5, §6, §7, §8, §9, §10, §11, §12, §13, §14, §15, §16

[6] = system: E. coli DSM 1116 + 50% Human Serum; assay: MIC determination in presence of 50% human serum; type: cell-based; settings: Escherichia coli, DSM1116
Source text: This investigation was completed by assessment of the antibacterial activity in presence of human plasma (50%) (Table 1), since high plasma protein binding can severely impair antibacterial activity and thus efficacy.
as §5, §6, §7, §8, §9, §10, §11, §12, §13, §14, §15

[7] = system: E. faecium (ciprofloxacin susceptible clinical isolate); assay: microbe, parasite or virus in culture; settings: Enterococcus faecium
[8] = system: Salmonella Kentucky (ciprofloxacin susceptible clinical isolate); assay: MIC, extended panel; type: cell-based; settings: Salmonella enterica
Procedure: as §5, §6, §7, §8, §9, §10, §11, §12, §13, §14, §15, §16

[9] = system: E. coli (ciprofloxacin susceptible clinical isolate); assay: MIC, extended panel; type: cell-based; settings: Escherichia coli
Procedure: as §5, §6, §7, §8, §9, §10, §11, §12, §13, §14, §15, §16

[10] = system: S. aureus (ciprofloxacin resistant clinical isolate); assay: microbe, parasite or virus in culture; type: cell-based, Staphylococcus aureus; settings: Staphylococcus aureus
Procedure: as §5, §6, §7, §8, §9, §10, §11, §12, §13, §14, §15, §16, §17

M. luteus DSM1790 = assay: MIC determination (broth microdilution); type: cell-based, Micrococcus luteus; settings: Micrococcus luteus, DSM1790
Procedure: as §5, §6, §7, §8, §9, §10, §11, §12, §13, §14, §15

[11] = Pharmacokinetic study, i.v.; settings: 50 mg kg^−1 i.v., after 24 h
[12] = system: P. aeruginosa (ciprofloxacin susceptible clinical isolate); assay: MIC, extended panel; type: cell-based, Pseudomonas aeruginosa; settings: Pseudomonas aeruginosa
Procedure: as §5, §6, §7, §8, §9, §10, §11, §12, §13, §14, §15, §16, §17

[13] = system: E. faecium (ciprofloxacin resistant clinical isolate); assay: microbe, parasite or virus in culture; type: cell-based; settings: Enterococcus faecium
Procedure: as §5, §6, §7, §8, §9, §10, §11, §12, §13, §14, §15, §16, §17

[14] = system: P. aeruginosa (ciprofloxacin resistant clinical isolate); assay: microbe, parasite or virus in culture; type: cell-based; settings: Pseudomonas aeruginosa
Procedure: as §5, §6, §7, §8, §9, §10, §11, §12, §13, §14, §15, §16, §17

E. coli DSM 1116 = assay: MIC determination (broth microdilution); type: cell-based, Escherichia coli; settings: Escherichia coli, DSM1116
Procedure: as §5, §6, §7, §8, §9, §10, §11, §12, §13, §14, §15

in vivo = settings: male, CD-1, mouse, whole blood, iv, 50 mg/kg
[15] = system: A. baumannii (ciprofloxacin resistant isolate); assay: microbe, parasite or virus in culture; type: cell-based, Acinetobacter baumannii; settings: Acinetobacter baumannii
Procedure: as §5, §6, §7, §8, §9, §10, §11, §12, §13, §14, §15, §16, §17

Formulation studies = type: physicochemical; settings: DMSO/PEG400 (10 : 90), 10 mg ml-1
Procedure: of preclinical formulations in a final concentration of 10 mg ml-1. All experimental procedures were carried out in cooperation with Pharmacelsus GmbH (Saarbrucken, Germany) according to Table S6.
1.1.2 Tolerability assessment and pharmacokinetic study
In vivo tolerability studies as well as determinations of pharmacokinetic parameters were carried out in cooperation with Pharmacelsus GmbH (Saarbrucken, Germany).
For tolerability assessment adult male CD-1 mice (RjOrl:SWISS, 7 weeks old) were purchased from Janvier Labs (France). For pharmacokinetic studies 6 weeks old, male CD-1 mice (RjOrl:SWISS, Janvier Labs, France) were used. The animals were allowed to acclimatize for at least seven days before the start of experiments. Housing was realized in a temperature-controlled room (20-24°C) and mice were exposed to a 12h light/dark cycle. Mice had access to food and water ad libitum throughout the study.
All experimental procedures were approved by and conducted in accordance with the regulations of local Animal Welfare authorities (Landesamt für Gesundheit und Verbraucherschutz, Abteilung Lebensmittel- und Veterinärwesen, Saarbrücken, Germany).

M. phlei DSM 750 = assay: MIC determination (broth microdilution); type: cell-based, Mycobacterium phlei; settings: Mycolicibacterium phlei, DSM750
Procedure: as §5, §6, §7, §8, §9, §10, §11, §12, §13, §14

S. Typhimurium TA100 = assay: MIC determination (broth microdilution); type: cell-based, Salmonella typhimurium; settings: Salmonella enterica, TYPHIMURIUM
Procedure: as §5, §6, §7, §8, §9, §10, §11, §12, §13, §14, §15

[16] = system: E. coli (ciprofloxacin resistant clinical isolate); assay: microbe, parasite or virus in culture; type: cell-based, Escherichia coli; settings: Escherichia coli
Procedure: as §5, §6, §7, §8, §9, §10, §11, §12, §13, §14, §15, §16

in vitro = settings: plasma, pH 7.4
Procedure: Determination of plasma stability
Human and murine plasma aliquots (Sigma-Aldrich, Taufkirchen, Germany) were thawed and subsequently centrifuged at 3000 rpm for 10 min at 4°C. Resulting supernatant was diluted in the same volume of phosphate buffer (pH 7.4) to obtain a plasma concentration of 50% (v/v). Stock solutions of […]
concentration of 20 µM (5% DMSO). Following incubation at 37°C ice-cold methanol containing 30% […]
were centrifuged at 4000 rpm for 20 min at 4°C and 100 µL of supernatant were directly transferred to a fresh MS-vial. Samples were analyzed by LC/MS-MS experiments. Quantification of remaining compounds was performed by an external calibration curve of standard solutions in the range of […]

T1 sequence (P0AES4 whole entry, one chain of several): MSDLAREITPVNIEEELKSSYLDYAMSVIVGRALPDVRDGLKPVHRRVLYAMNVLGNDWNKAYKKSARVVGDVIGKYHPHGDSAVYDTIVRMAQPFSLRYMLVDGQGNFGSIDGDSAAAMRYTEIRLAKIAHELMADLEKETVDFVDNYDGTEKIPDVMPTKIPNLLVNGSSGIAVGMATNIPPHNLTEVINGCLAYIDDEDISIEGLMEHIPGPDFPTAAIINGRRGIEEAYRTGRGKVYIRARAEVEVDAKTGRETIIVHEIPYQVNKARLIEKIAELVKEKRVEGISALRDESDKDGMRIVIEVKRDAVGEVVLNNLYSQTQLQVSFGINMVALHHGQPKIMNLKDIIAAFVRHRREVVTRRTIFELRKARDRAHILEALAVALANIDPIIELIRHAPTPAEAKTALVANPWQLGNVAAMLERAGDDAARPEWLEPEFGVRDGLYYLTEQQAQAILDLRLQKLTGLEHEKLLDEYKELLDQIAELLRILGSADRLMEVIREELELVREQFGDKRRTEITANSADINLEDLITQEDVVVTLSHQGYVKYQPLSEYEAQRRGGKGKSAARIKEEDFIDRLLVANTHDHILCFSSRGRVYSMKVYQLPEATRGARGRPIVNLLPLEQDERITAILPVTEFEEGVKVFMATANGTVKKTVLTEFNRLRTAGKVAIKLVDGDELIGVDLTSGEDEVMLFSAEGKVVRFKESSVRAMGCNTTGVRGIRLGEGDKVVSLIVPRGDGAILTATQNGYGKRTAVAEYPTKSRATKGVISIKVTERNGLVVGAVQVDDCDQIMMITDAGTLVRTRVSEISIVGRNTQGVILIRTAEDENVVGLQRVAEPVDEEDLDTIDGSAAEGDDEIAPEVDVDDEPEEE

SMILES: COc1c(NC(=O)c2ccc(NC(=O)c3ccc(NC(=O)[C@H](Cc4c[nH]nn4)NC(=O)c4ccc(NC(=O)/C(C)=C/c5ccc(O)cc5)cc4)cc3)c(OC)c2O)ccc(C(=O)O)c1O [Compound 2, AzaHis-albicidin]
- CC50 [1]: > 16 µM
- GI50 [1]: > 16 µM
- TGI (total growth inhibition) (HepG2 cells): > 16 µM
- MIC [2]: 0.25 µg/mL (≈ 0.283 µM)
- MIC [3]: 16 µg/mL (≈ 18.1 µM)
- MIC (B. subtilis DSM 10): 0.125 µg/mL (≈ 0.141 µM)
- MIC (E. coli BW25113): 0.016 µg/mL (≈ 0.0181 µM)
- E. coli gyrase inhibition (E. coli DNA gyrase): ≈
- MIC [4]: ≥ 128 µg/mL
- MIC [5]: 0.125 µg/mL (≈ 0.141 µM)
- MIC [6]: 2 µg/mL
- MIC [7]: 0.25 µg/mL (≈ 0.283 µM)
- MIC [8]: 0.063 µg/mL (≈ 0.0712 µM)
- MIC [9]: 0.016 µg/mL (≈ 0.0181 µM)
- MIC [10]: 0.5 µg/mL (≈ 0.565 µM)
- MIC (M. luteus DSM1790): 1 µg/mL (≈ 1.13 µM)
- plasma level as multiple of MIC for E. coli [11]: higher than 5 times MIC
- MIC [12]: 4 µg/mL (≈ 4.52 µM)
- MIC [13]: 64 µg/mL (≈ 72.3 µM)
- MIC [14]: 8 µg/mL (≈ 9.04 µM)
- MIC (E. coli DSM 1116): 0.016 µg/mL (≈ 0.0181 µM)
- half-life (in vivo): 10.1 h
- MIC [15]: 2 µg/mL (≈ 2.26 µM)
- appearance in formulation (Formulation studies): clear solution
- MIC (M. phlei DSM 750): 2 µg/mL (≈ 2.26 µM)
- MIC (S. Typhimurium TA100): 0.016 µg/mL (≈ 0.0181 µM)
- MIC [16]: 0.063 µg/mL (≈ 0.0712 µM)
- half-life at 20 µM (in vitro; human): > 4 h
- half-life at 20 µM (in vitro; mouse): 1.58 h
